ChEMBL document CHEMBL1275415, “The antimicrobial peptide NK-2, the core region of mammalian NK-lysin, kills intraerythrocytic Plasmodium falciparum” (Antimicrob Agents Chemother, 2008)
Active and inactive are the calls of the source. The calls are words filed in the database; no cut-off is given here.

Legend:
Plasmodium falciparum [1] = test: Antiplasmodial activity against Plasmodium falciparum 3D7 assessed as reduction in parasite viability after 45 hrs by fluorospectrometry; type: functional, organism-based
Plasmodium falciparum [2] = test: Antiplasmodial activity against Plasmodium falciparum 3D7 infected in human RBC assessed as permeabilization of plasma membrane at > 20 uM after 20 to 120 min by sytox green dye uptake assay; type: functional, organism-based
Plasmodium falciparum [3] = test: Antiplasmodial activity against Plasmodium falciparum 3D7 infected in human RBC assessed as appearance of hemozoin crystals at 10 uM after 1 hrs by light microscopy; type: functional, organism-based
Plasmodium falciparum [4] = test: Antiplasmodial activity against Plasmodium falciparum 3D7 infected in human RBC assessed as permeabilization of plasma membrane at 5 uM after 20 to 120 min by sytox green dye uptake assay; type: functional, organism-based
Plasmodium falciparum [5] = test: Antiplasmodial activity against Plasmodium falciparum 3D7 trophozoites infected in human RBC assessed as induction of hemolysis at 5 to 20 uM after 2 hrs by spectrophotometry; type: functional, organism-based
[6] = Cytotoxicity against human RBC assessed as induction of hemolysis at 5 to 20 uM after 2 hrs by spectrophotometry; type: cell-based; conditions: erythrocyte
Plasmodium falciparum [7] = test: Antiplasmodial activity against Plasmodium falciparum 3D7 trophozoite infected in human RBC assessed as partial induction of hemolysis at 0.1 to 100 uM after 1 hrs by spectrophotometry in presence of > 100 ug/ml annexin V and calcium; type: functional, organism-based
Plasmodium falciparum [8] = test: Antiplasmodial activity against Plasmodium falciparum 3D7 infected in human RBC assessed as permeabilization of plasma membrane at 10 uM after 20 to 120 min by sytox green dye uptake assay; type: functional, organism-based
Plasmodium falciparum [9] = test: Antiplasmodial activity against Plasmodium falciparum 3D7 assessed as reduction in parasite viability at 6.2 uM after 45 hrs by fluorospectrometry; type: functional; conditions: 3D7, 45 h
Plasmodium falciparum [10] = test: Antiplasmodial activity against Plasmodium falciparum 3D7 trophozoite infected in human RBC assessed as partial induction of hemolysis at 0.1 to 100 uM after 1 hrs by spectrophotometry in presence of 100 ug/ml annexin V and calcium; type: functional, organism-based
Plasmodium falciparum [11] = test: Antiplasmodial activity against Plasmodium falciparum 3D7 schizonts infected in human RBC assessed as induction of hemolysis at 5 to 20 uM after 2 hrs by spectrophotometry; type: functional, organism-based
Plasmodium falciparum [12] = test: Antiplasmodial activity against Plasmodium falciparum 3D7 trophozoites infected in human RBC assessed as induction of hemolysis at 10 uM after 90 min by spectrophotometry; type: functional, organism-based

H-KILRGVCKKIMRTFLRRISKDILTGKK-OH
inhibition (Plasmodium falciparum [1]): Dose-dependent effect | Activity (Plasmodium falciparum [2]): inactive | Activity (Plasmodium falciparum [3]): Active | Activity (Plasmodium falciparum [4]): Active | Activity (Plasmodium falciparum [5]): Active | Activity [6]: Non-toxic | Activity (Plasmodium falciparum [7]): inactive | Activity (Plasmodium falciparum [8]): Active | inhibition at 6.2 µM (Plasmodium falciparum [9]): 50% | Activity (Plasmodium falciparum [10]): Active | Activity (Plasmodium falciparum [11]): Active | Activity (Plasmodium falciparum [12]): Active
